For this assay, the target named is T1, PRKCZ (PKC zeta) (Homo sapiens, UniProt Q05513).
T1 construct: purchased Thermo Fisher Scientific (Life Technologies) SelectScreen
Description: SelectScreen Z'LYTE. The class given is biochemical. In outline: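 NU5455 was profiled across the SelectScreen Broad panel of kinase activity and binding assays. Z'LYTE reactions such as CSF1R ran at apparent Km ATP, while the Adapta CAMK1 assay used ATP listed as 10. Values are given as percent.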

Each structure is given as a SMILES string.

T1 sequence (Q05513 whole entry): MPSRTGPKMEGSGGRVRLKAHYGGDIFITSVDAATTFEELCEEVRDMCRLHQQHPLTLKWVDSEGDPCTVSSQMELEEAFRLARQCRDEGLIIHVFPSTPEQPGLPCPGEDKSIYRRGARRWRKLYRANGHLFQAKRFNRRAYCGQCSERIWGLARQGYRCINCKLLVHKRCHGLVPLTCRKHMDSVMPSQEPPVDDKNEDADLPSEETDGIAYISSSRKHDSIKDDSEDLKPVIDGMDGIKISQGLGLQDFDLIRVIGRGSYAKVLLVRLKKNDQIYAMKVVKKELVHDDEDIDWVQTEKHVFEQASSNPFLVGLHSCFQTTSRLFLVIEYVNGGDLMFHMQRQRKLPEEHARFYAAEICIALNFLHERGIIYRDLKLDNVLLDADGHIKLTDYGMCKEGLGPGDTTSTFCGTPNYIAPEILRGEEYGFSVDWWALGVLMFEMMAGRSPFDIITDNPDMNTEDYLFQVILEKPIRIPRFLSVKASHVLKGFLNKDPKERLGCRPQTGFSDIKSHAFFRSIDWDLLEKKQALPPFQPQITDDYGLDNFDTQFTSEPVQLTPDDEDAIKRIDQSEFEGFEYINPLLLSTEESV

For the compound `CN(C(=O)CN1CCOCC1)c1ccc2sc3c(-c4cccc5c(=O)cc(N6CC7CCC(C6)O7)oc45)cccc3c2c1` [NU5455], the inhibition (in general, the change of the read-out against control, counted positive when it falls) at 1 µM was determined as 4.7%.

For the origin of these results see article PMC6934184, “Selective DNA-PKcs inhibition extends the therapeutic index of localized radiotherapy and chemotherapy” (The Journal of Clinical Investigation, 2019).
